Assay results as given in US20080138284A1, “Novel Peptides That Promote Lipid Efflux” (Lipid Sciences, Inc., priority 2006, published 2008).
Ends that are not written are not given here.

What was measured:
[1] = test system: apoE knockout mice on a chow diet and LDL receptor knockout mice on a western high fat diet; test: Aortic arch atherosclerosis in knockout mice; format: in vivo, mouse; conditions: 2 mg/kg to 50 mg/kg iv or ip, 2 to 3 times per week, approximately 6 weeks
Procedure: The ability of the peptides of the present invention and associated fragments are tested in apoE knockout mice on a chow diet and LDL receptor knockout mice on a western high fat diet to determine the effect of these peptides to reduce atherosclerosis in a mouse model system. One or more of the peptides of the present invention, in a range of concentration of 2 mg/kg to 50 mg/kg, is injected intravenously (iv) or intraperitoneally (ip) 2 to 3 times per week over a period of approximately 6 weeks. Aortic atherosclerosis is quantitated in the aortic arch before administration of the peptides and after the 6 week period of administration. (Wu et al., J. Biol. Chem.; 2004: 279, 22913-22925).

[2] = test system: J774 mouse macrophage cells (ABCA1); test: ABCA1 mediated cholesterol efflux; format: cell-based; conditions: peptide samples run at 30 μg/ml
From the text: The methods employed in this study have been described in U.S. Pat. Nos. 7,029,863, 7,060,452, U.S. Patent Application Publication No. 2005/0191715, and in Moya et al., Arteriosclerosis & Thrombosis 1994:14:1056-1065 and Liu et al., J. Biol. Chem., 2003:278(44), 42976-42984. SR-B1 mediated cholesterol efflux is examined in FU5AH rat hepatoma cells and ABCA1 mediated cholesterol efflux is examined in J774 mouse macrophage cells as described in these references.

[3] = test system: CD11b; test: CD11b expression in stimulated monocytes by flow cytometry; format: cell-based; conditions: human monocytes, 1 μmol/L PMA, 20 μg/ml apoA-1 or peptide
Procedure: Monocyte Isolation Peripheral whole blood (PWB) is drawn from healthy consenting individuals into syringes containing sodium citrate (final concentration—19.2 mM). Resting human monocytes are isolated from PWB by density centrifugation with Lymphoprep (Axis Shield). Mononuclear cells (MNCs) are collected and monocytes are further separated to purity using the Dynal negative isolation kit (Invitrogen). Monocytes are resuspended in phosphate buffered saline (PBS) and cell number is determined counting cell suspension on an automated hematology analyzer (Sysmex, KX-21N, USA). Purification of HDL and apoA-1 Human plasma apoA-1 is isolated as previously described and the purity determined using total mass spectrometry. Flow Cytometry 100 μL of monocytes are stimulated with either 1 μmol/L phorbol-myristate-acetate (PMA) or 1 μg/ml lipopolysaccharide (LPS) (Sigma, Australia) in the presence or absence of apoA-1 (20 μg/ml), or 20 μg/ml of the test peptides of the present invention. SEQ ID NOs: 72, 80, 89, 354, 355 and 372 are also tested individually. The cells are incubated with the FITC conjugated antibody to either the active epitope of CD11b (eBiosciences, USA, Clone CBRM1/5) or total CD11b (Serotec, USA, Clone ICRF44) for 15 min at 37° C. Cells are then fixed with 4% paraformaldehyde. Samples are controlled for by using the appropriately matched isotype matched negative control (FITC-anti-mouse IgG) (Serotec, USA, Clone W3/25). CD11b expression is measured by flow cytometry using FACS Calibur (Becton Dickinson). Analysis is conducted using the Cell Quest Pro software. Statistical Analysis Values are presented as the mean ±SD or percentage of control ±SD. FACS results are analyzed for statistical significance using one-way ANOVA followed by Bonferroni post-hoc test. Significance is accepted at P<0.05. […] The combined effects of increasing cholesterol efflux and decreasing inflammation indicate that the peptides of the present invention effectively mimic the function of Apo AI and will decrease atherosclerosis.

Q: With “Ac-Leu Glu Ser Ala Lys Val Ser Ala Leu Ser Ala Leu Glu Glu Ala Thr Lys Lys Ala Lys Pro Val Leu Leu Glu Ser Phe Lys Val Ser Phe Leu Ser Ala Leu Glu Glu Tyr Thr Lys Lys-NH2 (Ac-LESAKVSALSALEEATKKAKPVLLESFKVSFLSALEEYTKK-NH2) [SEQ ID NO:372]” as the substance, how does the “atherosclerosis in the aortic arch” value [1] read?
A: Its value is “reduce atherosclerosis in the aortic arch”.

Q: And the “efflux of cholesterol from J774 macrophage cells (ABCA1 pathway)” value (shortened to “efflux of cholesterol”) [2]?
A: Its value is “stimulate efflux of cholesterol”.

Q: What about the “PMA induced CD11b expression” value [3] of the same substance?
A: The value was “significantly reduce PMA induced CD11b expression”.

Q: With “SDELRQRLAARLEALKENAKPVLLESFKVSFLSALEEYTKK [SEQ ID NO:80]” as the substance, how does the “atherosclerosis in the aortic arch” value [1] read?
A: Its value is “reduce atherosclerosis in the aortic arch”.

Q: What about the “efflux of cholesterol” value [2] of the same substance?
A: The value was “stimulate efflux of cholesterol”.

Q: And the “PMA induced CD11b expression” value [3]?
A: The value was “significantly reduce PMA induced CD11b expression”.

Q: What does the source list for “Ac-Ser Asp Glu Leu Arg Gln Arg Leu Ala Ala Arg Leu Glu Ala Leu Lys Glu Asn Ala Lys Pro Val Leu Leu Glu Ser Phe Lys Val Ser Phe Leu Ser Ala Leu Glu Glu Tyr Thr Lys Lys-NH2 (Ac-SDELRQRLAARLEALKENAKPVLLESFKVSFLSALEEYTKK-NH2) [SEQ ID NO:355]”?
A: atherosclerosis in the aortic arch [1]: reduce atherosclerosis in the aortic arch; efflux of cholesterol from J774 macrophage cells (ABCA1 pathway) [2]: stimulate efflux of cholesterol; PMA induced CD11b expression [3]: significantly reduce PMA induced CD11b expression

Q: For “GEEMRDRARAHVDALRTHAKPVLLESFKVSFLSALEEYTKK [SEQ ID NO:72]”, which “atherosclerosis in the aortic arch” value [1] is on record?
A: Its value is “reduce atherosclerosis in the aortic arch”.

Q: And the “efflux of cholesterol” value [2]?
A: Its value is “stimulate efflux of cholesterol”.

Q: And the “PMA induced CD11b expression” value [3]?
A: Its value is “significantly reduce PMA induced CD11b expression”.

Q: What does the source list for “LESAKVSALSALEEATKKAKPVLLESFKVSFLSALEEYTKK [SEQ ID NO:89]”?
A: atherosclerosis in the aortic arch [1]: reduce atherosclerosis in the aortic arch; efflux of cholesterol from J774 macrophage cells (ABCA1 pathway) [2]: stimulate efflux of cholesterol; PMA induced CD11b expression [3]: significantly reduce PMA induced CD11b expression

Q: With “Ac-Gly Glu Glu Met Arg Asp Arg Ala Arg Ala His Val Asp Ala Leu Arg Thr His Ala Lys Pro Val Leu Leu Glu Ser Phe Lys Val Ser Phe Leu Ser Ala Leu Glu Glu Tyr Thr Lys Lys-NH2 (Ac-GEEMRDRARAHVDALRTHAKPVLLESFKVSFLSALEEYTKK-NH2) [SEQ ID NO:354]” as the substance, how does the “atherosclerosis in the aortic arch” value [1] read?
A: Its value is “reduce atherosclerosis in the aortic arch”.

Q: And the “efflux of cholesterol” value [2]?
A: Its value is “stimulate efflux of cholesterol”.

Q: And the “PMA induced CD11b expression” value [3]?
A: The value was “significantly reduce PMA induced CD11b expression”.
